Literature values, collected in patent publication US5424332A, “Pharmaceutical composition and process for the production thereof” (priority 1993, dated 1995).

Assays:
[1] = high doses; parenteral, dermal and, in particular, peroral administration
Ehrlich ascites tumor = conditions: mice
[2] = tested on: mitomycin C toxic effects

Row | SMILES | adverse effects and toxicity [1] | growth of the Ehrlich ascites tumor (Ehrlich ascites tumor) | toxic effects of mitomycin C [2] | anti-psoriatic action (psoriasis)
1 | O=C(O)/C(O)=C(\O)C(=O)O [dihydroxy fumaric acid] | unacceptable rate of adverse effects and high toxicity | – | – | –
2 | NC(=O)/C=C/C(N)=O [fumaramide] | unacceptable rate of adverse effects and high toxicity | – | – | –
3 | O=C(O)/C=C/C(=O)O [fumaric acid] | unacceptable rate of adverse effects and high toxicity | impedes the growth | reduces the toxic effects | anti-psoriatic
4 | N#C/C=C/C#N [fumaronitrile] | unacceptable rate of adverse effects and high toxicity | – | – | –
